From PubChem BioAssay (NCI)
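Compound exposure: 48 hours, 5 concentrations, 96-well plates. TGI marks complete inhibition of growth.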

How the values were obtained:
Assay in all cases: NCI tumour cell line growth inhibition, 48 h
[1] = test system: SF-268 CNS
[2] = test system: UACC-257 melanoma
[3] = test system: SK-MEL-5 melanoma
[4] = test system: HCT-15 colon
[5] = test system: A498 renal
[6] = test system: HCC-2998 colon
[7] = test system: NCI/ADR-RES ovarian
[8] = test system: IGROV1 ovarian
[9] = test system: SW-620 colon
[10] = test system: SK-MEL-2 melanoma
[11] = test system: DU-145 prostate
[12] = test system: OVCAR-3 ovarian
[13] = test system: TK-10 renal
[14] = test system: MDA-MB-435
[15] = test system: SN12C renal
[16] = test system: RPMI-8226 leukemia
[17] = test system: T-47D breast
[18] = test system: HL-60(TB) leukemia
[19] = test system: U251 CNS
[20] = test system: MALME-3M melanoma
[21] = test system: BT-549 breast
[22] = test system: OVCAR-5 ovarian
[23] = test system: HOP-62 NSCLC
[24] = test system: ACHN renal
[25] = test system: CAKI-1 renal
[26] = test system: HOP-92 NSCLC
[27] = test system: SF-539 CNS
[28] = test system: SK-OV-3 ovarian
[29] = test system: SF-295 CNS
[30] = test system: UACC-62 melanoma
[31] = test system: A549 NSCLC
[32] = test system: MOLT-4 leukemia
[33] = test system: NCI-H460 lung
[34] = test system: SK-MEL-28 melanoma
[35] = test system: SNB-19 CNS
[36] = test system: SR leukemia
[37] = test system: K-562 leukemia
[38] = test system: MDA-N
[39] = test system: COLO 205 colon
[40] = test system: HT29 colon
[41] = test system: OVCAR-4 ovarian
[42] = test system: CCRF-CEM leukemia
[43] = test system: PC-3 prostate
[44] = test system: HCT-116 colon
[45] = test system: EKVX NSCLC
[46] = test system: M14 melanoma
[47] = test system: RXF 393 renal
[48] = test system: 786-0 renal
[49] = test system: KM12 colon
[50] = test system: LOX IMVI melanoma
[51] = test system: MCF7 breast
[52] = test system: NCI-H226 lung
[53] = test system: NCI-H23 lung
[54] = test system: HS 578T breast
[55] = test system: NCI-H522 lung
[56] = test system: UO-31 renal
[57] = test system: SNB-75 CNS
[58] = test system: MDA-MB-231 breast
[59] = test system: OVCAR-8 ovarian

`CCOC(=O)/C=C/C1=C(Br)[C@@]2(C)CC[C@@H]3c4ccc(O)cc4CC[C@H]3[C@@H]2C1` was tested, and the TGI [1] was 33 µM, the TGI [2] was 26.8 µM and the TGI [3] was 26.8 µM. For the same compound, the TGI [4] was 24.4 µM, the TGI [5] was 32 µM and the TGI [6] was 28.8 µM. For the same compound, the TGI [7] was 27.9 µM, the TGI [8] was 24.7 µM and the TGI [9] was 37.3 µM. For the same compound, the TGI [10] was 28.1 µM, the TGI [11] was 19.1 µM and the TGI [12] was 20.5 µM. For the same compound, the TGI [13] was 31.7 µM, the TGI [14] was 28.8 µM and the TGI [15] was 26.5 µM. The TGI [16] was 6.6 µM, the TGI [17] was 16.5 µM and the TGI [18] was 34 µM. For the same compound, the TGI [19] was 30.3 µM, the TGI [20] was 24.3 µM and the TGI [21] was 27.3 µM. For the same compound, the TGI [22] was 28.5 µM, the TGI [23] was 27.5 µM and the TGI [24] was 29.1 µM. The TGI [25] was 30 µM, the TGI [26] was 23.8 µM and the TGI [27] was 30.7 µM. It also gave a TGI [28] of 28.7 µM, a TGI [29] of 29.2 µM and a TGI [30] of 19.4 µM. For the same compound, the TGI [31] was 30.5 µM, the TGI [32] was 43.2 µM and the TGI [33] was 28.4 µM. It also gave a TGI [34] of 30 µM, a TGI [35] of 30.2 µM and a TGI [36] of 18.5 µM. It also gave a TGI [37] of 24.9 µM, a TGI [38] of 26.7 µM and a TGI [39] of 32.2 µM. The TGI [40] was 27.8 µM, the TGI [41] was 27.7 µM and the TGI [42] was 32.3 µM. The TGI [43] was 28.5 µM, the TGI [44] was 26.6 µM and the TGI [45] was 30.7 µM. It also gave a TGI [46] of 23.9 µM, a TGI [47] of 29.5 µM and a TGI [48] of 25.4 µM. The TGI [49] was 29.7 µM, the TGI [50] was 19.6 µM and the TGI [51] was 26.7 µM. It also gave a TGI [52] of 30.2 µM, a TGI [53] of 26.6 µM and a TGI [54] of 28.9 µM. It also gave a TGI [55] of 14.2 µM and a TGI [56] of 30.4 µM.

`COc1ccc(OC)c2c1ccc1c(C)c3ccccc3c(C)c12` showed a TGI [1] greater than 100 µM, a TGI [2] greater than 100 µM and a TGI [4] greater than 100 µM. For the same compound, the TGI [5] was greater than 100 µM, the TGI [6] was 45.8 µM and the TGI [8] was greater than 100 µM. It also gave a TGI [10] greater than 100 µM, a TGI [11] greater than 100 µM and a TGI [12] greater than 100 µM. The TGI [13] was greater than 100 µM, the TGI [14] was greater than 100 µM and the TGI [15] was greater than 100 µM. For the same compound, the TGI [57] was greater than 100 µM, the TGI [16] was greater than 100 µM and the TGI [17] was greater than 100 µM. For the same compound, the TGI [18] was greater than 100 µM, the TGI [19] was greater than 100 µM and the TGI [20] was greater than 100 µM. The TGI [21] was greater than 100 µM, the TGI [58] was greater than 100 µM and the TGI [22] was greater than 100 µM. For the same compound, the TGI [23] was greater than 100 µM, the TGI [24] was greater than 100 µM and the TGI [25] was greater than 100 µM. It also gave a TGI [30] greater than 100 µM, a TGI [32] greater than 100 µM and a TGI [33] greater than 100 µM. For the same compound, the TGI [34] was greater than 100 µM, the TGI [35] was greater than 100 µM and the TGI [36] was greater than 100 µM. The TGI [37] was greater than 100 µM, the TGI [38] was greater than 100 µM and the TGI [40] was greater than 100 µM. The TGI [41] was greater than 100 µM, the TGI [42] was greater than 100 µM and the TGI [43] was greater than 100 µM. The TGI [44] was greater than 100 µM, the TGI [46] was greater than 100 µM and the TGI [48] was greater than 100 µM. For the same compound, the TGI [59] was greater than 100 µM, the TGI [50] was greater than 100 µM and the TGI [51] was greater than 100 µM. The TGI [52] was greater than 100 µM, the TGI [53] was greater than 100 µM and the TGI [55] was greater than 100 µM. The TGI [56] was greater than 100 µM.
